According to the NIST ThermoML archive (doi:10.1021/je800248w):
Numbers after ± are expanded uncertainties.

Key:
[1] = molar heat capacity at constant pressure; settings: 101.3 kPa, Liquid, Small sample (50 mg) DSC
[2] = molar heat capacity at constant pressure; xn = mol fraction of the nth substance listed; settings: 101.3 kPa, Liquid, Small sample (50 mg) DSC, x1 = 1

SMILES | molar heat capacity at constant pressure ([1]; 283.15 K) [J/K/mol] | molar heat capacity at constant pressure ([1]; 293.15 K) [J/K/mol] | molar heat capacity at constant pressure ([1]; 303.15 K) [J/K/mol] | molar heat capacity at constant pressure ([1]; 313.15 K) [J/K/mol] | molar heat capacity at constant pressure ([1]; 323.15 K) [J/K/mol] | molar heat capacity at constant pressure ([1]; 333.15 K) [J/K/mol] | molar heat capacity at constant pressure ([1]; 343.15 K) [J/K/mol] | molar heat capacity at constant pressure ([2]; 283.15 K) [J/K/mol] | molar heat capacity at constant pressure ([2]; 293.15 K) [J/K/mol] | molar heat capacity at constant pressure ([2]; 303.15 K) [J/K/mol] | molar heat capacity at constant pressure ([2]; 313.15 K) [J/K/mol] | molar heat capacity at constant pressure ([2]; 323.15 K) [J/K/mol] | molar heat capacity at constant pressure ([2]; 333.15 K) [J/K/mol] | molar heat capacity at constant pressure ([2]; 343.15 K) [J/K/mol]
CCOS(=O)(=O)[O-].CCn1cc[n+](C)c1 [1-ethyl-3-methylimidazolium ethyl sulfate] | 365 ± 30 | 371 ± 30 | 380 ± 31 | 386 ± 31 | 392 ± 32 | 397 ± 32 | 403 ± 33 | – | – | – | – | – | – | –
CCn1cc[n+](C)c1.O=C([O-])C(F)(F)F [1-ethyl-3-methylimidazolium trifluoroacetate] | 308 ± 25 | 313 ± 25 | 320 ± 26 | 324 ± 26 | 328 ± 27 | 332 ± 27 | 337 ± 27 | – | – | – | – | – | – | –
CCn1cc[n+](C)c1.O=S(=O)([O-])C(F)(F)F [1-ethyl-3-methylimidazolium trifluoromethanesulfonate] | 353 ± 29 | 358 ± 29 | 366 ± 30 | 371 ± 30 | 376 ± 31 | 380 ± 31 | 384 ± 31 | – | – | – | – | – | – | –
O [water] | 75 ± 6 | 75 ± 6 | 75 ± 6 | 75 ± 6 | 75 ± 6 | 75 ± 6 | 75 ± 6 | – | – | – | – | – | – | –

Next, values leading:

molar heat capacity at constant pressure ([1]; 283.15 K) [J/K/mol] | molar heat capacity at constant pressure ([1]; 293.15 K) [J/K/mol] | molar heat capacity at constant pressure ([1]; 303.15 K) [J/K/mol] | molar heat capacity at constant pressure ([1]; 313.15 K) [J/K/mol] | molar heat capacity at constant pressure ([1]; 323.15 K) [J/K/mol] | molar heat capacity at constant pressure ([1]; 333.15 K) [J/K/mol] | molar heat capacity at constant pressure ([1]; 343.15 K) [J/K/mol] | molar heat capacity at constant pressure ([2]; 283.15 K) [J/K/mol] | molar heat capacity at constant pressure ([2]; 293.15 K) [J/K/mol] | molar heat capacity at constant pressure ([2]; 303.15 K) [J/K/mol] | molar heat capacity at constant pressure ([2]; 313.15 K) [J/K/mol] | molar heat capacity at constant pressure ([2]; 323.15 K) [J/K/mol] | molar heat capacity at constant pressure ([2]; 333.15 K) [J/K/mol] | molar heat capacity at constant pressure ([2]; 343.15 K) [J/K/mol] | SMILES
– | – | – | – | – | – | – | 75 ± 6 | 75 ± 6 | 75 ± 6 | 75 ± 6 | 75 ± 6 | 75 ± 6 | 75 ± 6 | O [water] + CCOS(=O)(=O)[O-].CCn1cc[n+](C)c1
– | – | – | – | – | – | – | 75 ± 6 | 75 ± 6 | 75 ± 6 | 75 ± 6 | 75 ± 6 | 75 ± 6 | 75 ± 6 | O [water] + CCn1cc[n+](C)c1.O=C([O-])C(F)(F)F
– | – | – | – | – | – | – | 75 ± 6 | 75 ± 6 | 75 ± 6 | 75 ± 6 | 75 ± 6 | 75 ± 6 | 75 ± 6 | O [water] + CCn1cc[n+](C)c1.O=S(=O)([O-])C(F)(F)F
